From ChEMBL document CHEMBL1138304, “New novobiocin analogues as antiproliferative agents in breast cancer cells and potential inhibitors of heat shock protein 90” (J Med Chem, 2007)
The source made the active and inactive calls. No cut-off for these calls is given here.

Assays:
[1] = system: MCF7; assay: Cell cycle arrest in MCF7 cells assessed as accumulation at subG1 phase at 200 uM after 48 hrs by flow cytometry; type: functional, Homo sapiens
[2] = system: MCF7; assay: Cell cycle arrest in MCF7 cells assessed as accumulation at G0/G1 phase at 200 uM after 48 hrs by flow cytometry; type: functional, Homo sapiens
[3] = system: MCF7; assay: Cell cycle arrest in MCF7 cells assessed as accumulation at S phase at 200 uM after 48 hrs by flow cytometry; type: functional, Homo sapiens
[4] = system: MCF7; assay: Cell cycle arrest in MCF7 cells assessed as accumulation at G2/M phase at 200 uM after 48 hrs by flow cytometry; type: functional, Homo sapiens
[5] = system: MCF7; assay: Cell cycle arrest in MCF7 cells assessed as accumulation at subG1 phase at 200 uM after 72 hrs by flow cytometry; type: functional, Homo sapiens
[6] = system: MCF7; assay: Cell cycle arrest in MCF7 cells assessed as accumulation at G0/G1 phase at 200 uM after 72 hrs by flow cytometry; type: functional, Homo sapiens
[7] = system: MCF7; assay: Cell cycle arrest in MCF7 cells assessed as accumulation at S phase at 200 uM after 72 hrs by flow cytometry; type: functional, Homo sapiens
[8] = system: MCF7; assay: Cell cycle arrest in MCF7 cells assessed as accumulation at G2/M phase at 200 uM after 72 hrs by flow cytometry; type: functional, Homo sapiens
[9] = system: MCF7; assay: Decrease in Raf1 expression in MCF7 cells at 200 uM after 18 hrs; type: functional, cell-based; conditions: Homo sapiens
[10] = system: MCF7; assay: Cytotoxicity against MCF7 cells assessed as cell viability at 200 uM after 72 hrs by MTT assay; type: functional; conditions: Homo sapiens, MCF7, 72 h; read-out: Activity
[11] = system: MCF7; assay: Decrease in HER2 expression in MCF7 cells at 200 uM after 18 hrs; type: functional, cell-based; conditions: Homo sapiens
[12] = system: MCF7; assay: Decrease in cdk4 protein level in MCF7 cells at 200 uM after 18 hrs; type: functional, cell-based; conditions: Homo sapiens
[13] = system: MCF7; assay: Growth inhibition of MCF7 cells after 72 hrs by MTT assay; type: functional, cell-based; conditions: Homo sapiens, MCF7, 72 h
[14] = system: MELN; assay: Inhibition of estradiol-induced ER-mediated transcription in MELN cells by measuring luciferase activity at 200 uM after 18 hrs; type: functional, cell-based; conditions: Homo sapiens
[15] = system: MELN; assay: Inhibition of basal ER-mediated transcription activity in MELN cells by measuring luciferase activity at 2 uM after 18 hrs; type: functional, cell-based; conditions: Homo sapiens
[16] = system: MELN; assay: Inhibition of estradiol-induced ER-mediated transcription in MELN cells by measuring luciferase activity at 2 uM after 18 hrs; type: functional, cell-based; conditions: Homo sapiens

Row | SMILES | Activity [1] [%] | Activity [2] [%] | Activity [3] [%] | Activity [4] [%] | Activity [5] [%] | Activity [6] [%] | Activity [7] [%] | Activity [8] [%] | Activity [9] | viability at 200 µM [10] [%] | Activity [11] | Activity [12] | IC50 [13] [µM] | Activity [14] | Activity [15] | Activity [16]
1 | Cc1ccc(S(=O)(=O)Oc2ccc3c(-c4ccc(Cl)cc4)c(NC(=O)c4ccc5c(c4)CCC(C)(C)O5)c(=O)oc3c2C)cc1 | 3.8 | 70.4 | 19.7 | 9.9 | 4.9 | 74.1 | 17.1 | 7.5 | Active |  |  |  |  |  |  | 
2 | COc1ccc(-c2c(NC(=O)c3ccc4c(c3)CCC(C)(C)O4)c(=O)oc3c(C)c(OC)ccc23)cc1 | 3.7 | 71 | 15.3 | 11.5 | 4 | 81.3 | 9.5 | 7.7 |  |  |  |  |  |  |  | 
3 | COc1ccc2c(O)c(NC(=O)c3ccc4c(c3)CCC(C)(C)O4)c(=O)oc2c1C | 3.3 | 71.9 | 16.2 | 10.7 | 2.5 | 85.4 | 8.5 | 6.5 |  | 75 |  |  |  |  |  | 
4 | COc1ccc(C(=O)Nc2c(OC)c3ccc(OC)c(C)c3oc2=O)cc1CC=C(C)C | 3.6 | 73.3 | 14.4 | 10.8 | 3.8 | 82.1 | 10.2 | 6.9 |  |  | Active |  |  |  |  | 
5 | COc1ccc2c(OC)c(NC(=O)c3ccc4c(c3)CCC(C)(C)O4)c(=O)oc2c1C | 7.5 | 56.7 | 28.4 | 11.9 | 3.8 | 77.8 | 14.8 | 7.2 |  | 75 |  |  |  |  |  | 
6 | Cc1c(O)ccc2c(O)c(NC(=O)c3ccc4c(c3)CCC(C)(C)O4)c(=O)oc12 [CYCLONOVOBIOCIC ACID] | 7.7 | 46.5 | 36.2 | 14.4 | 6 | 58.1 | 23.4 | 18.6 |  | 75 |  | Active |  |  |  | 
7 | CO[C@@H]1[C@@H](OC(N)=O)[C@@H](O)[C@H](Oc2ccc3c(O)c(NC(=O)c4ccc(O)c(CC=C(C)C)c4)c(=O)oc3c2C)OC1(C)C [NOVOBIOCIN] | 5.9 | 59.9 | 19.7 | 19.3 | 9.8 | 58.3 | 21.3 | 19.3 |  |  |  |  | 260 | Active |  | 
8 | CC1(C)[C@@H](O)CC[C@]2(C)[C@H]3C(=O)C=C4[C@@H]5C[C@@](C)(C(=O)O)CC[C@]5(C)CC[C@@]4(C)[C@]3(C)CC[C@@H]12 |  |  |  |  |  |  |  |  |  |  |  |  |  |  | Active | Active
